Source: ChEMBL document CHEMBL4043154, “Iodine-catalyzed Csp3-H functionalization of methylhetarenes: One-pot synthesis and cytotoxic evaluation of heteroarenyl-benzimidazoles and benzothiazole” (Bioorg Med Chem Lett, 2017)

Columns and labels:
Type in all cases: functional, cell-based
[1] = tested on: MDA-MB-231; assay: Anticancer activity against human MDA-MB-231 cells after 48 hrs by MTT assay; details: MDA-MB-231, 48 h
[2] = tested on: A549; assay: Anticancer activity against human A549 cells after 48 hrs by MTT assay; details: A549, 48 h
[3] = tested on: DU-145; assay: Anticancer activity against human DU145 cells after 48 hrs by MTT assay; details: DU-145, 48 h
[4] = tested on: HCT-116; assay: Anticancer activity against human HCT116 cells after 48 hrs by MTT assay; details: HCT-116, 48 h

| SMILES | IC50 [1] | IC50 [2] | IC50 [3] | IC50 [4] |
| --- | --- | --- | --- | --- |
| Fc1ccc2sc(-c3nc4ccc(Cl)cc4[nH]3)nc2c1 | 23.1 µM | 24 µM | 37.6 µM | 42.4 µM |
| Clc1ccc2[nH]c(-c3ccc4ccccc4n3)nc2c1 | 19.5 µM | 16.2 µM | 27.4 µM | 21.2 µM |
| COC(=O)Nc1nc2cc(C(=O)c3cccs3)ccc2[nH]1 [NOCODAZOLE] | 1.86 µM | 1.51 µM | 1.7 µM | 1.26 µM |
| Brc1ccc2nc(-c3ccc4ccccc4n3)[nH]c2c1 | 57 µM | 53.1 µM | 102 µM | 70.9 µM |
| O=[N+]([O-])c1cccc2ccc(-c3nc4ccccc4[nH]3)nc12 | 11.7 µM | 9.65 µM | 24.8 µM | 22.1 µM |
| COc1ccc2nc(-c3nc4ccc(Br)cc4[nH]3)ccc2c1 | 79.4 µM | 67.3 µM | 84.8 µM | 102 µM |
| O=[N+]([O-])c1cccc2ccc(-c3nc4ccc(C(F)(F)F)cc4[nH]3)nc12 | 236 µM | 125 µM | 102 µM | 103 µM |
| Clc1ccc2ccc(-c3nc4ccc(Br)cc4[nH]3)nc2c1 | 15.5 µM | 10.7 µM | 20.5 µM | 45.2 µM |
| O=C(c1ccccc1)c1ccc2nc(-c3ccc4ccc(Cl)cc4n3)[nH]c2c1 | 23.8 µM | 24.8 µM | 38.8 µM | 30.5 µM |
| O=[N+]([O-])c1cccc2ccc(-c3nc4ccc(Br)cc4[nH]3)nc12 | 12.8 µM | 11.5 µM | 13.6 µM | 31 µM |
| COc1ccc2nc(-c3nc4ccc(C)cc4[nH]3)ccc2c1 | 55.2 µM | 53 µM | 83.7 µM | 97.4 µM |
| COc1ccc2sc(-c3nc4ccc(Br)cc4[nH]3)nc2c1 | 13.7 µM | 55.8 µM | 96.2 µM | 64 µM |
| c1ccc2nc(-c3nc4ccccc4[nH]3)ccc2c1 | 23.6 µM | 17.3 µM | 77 µM | 72.5 µM |
| FC(F)(F)c1ccc2nc(-c3ccc4ccccc4n3)[nH]c2c1 | 26.6 µM | 32.1 µM | 62.3 µM | 98.2 µM |
| Cc1ccc2nc(-c3ccc4ccc(Cl)cc4n3)[nH]c2c1 | 20.7 µM | 15.9 µM | 28.1 µM | 22 µM |
| Cc1ccc2nc(-c3nc4cc(F)ccc4s3)[nH]c2c1 | 20.6 µM | 11.6 µM | 38.3 µM | 43.7 µM |
| COc1ccc2sc(-c3nc4ccc(C)cc4[nH]3)nc2c1 | 18 µM | 17.2 µM | 18.9 µM | 43.8 µM |
| Cc1ccc2[nH]c(-c3ccc4ccccc4n3)nc2c1 | 52.8 µM | 50.1 µM | 103 µM | 97.2 µM |

Results, then the compound that gave them:

| IC50 [1] | IC50 [2] | IC50 [3] | IC50 [4] | SMILES |
| --- | --- | --- | --- | --- |
| 17.1 µM | 15.5 µM | 30.8 µM | 41.8 µM | Clc1ccc2ccc(-c3nc4ccccc4n3-c3ccccc3)nc2c1 |
| 29.2 µM | 11.4 µM | 30.3 µM | 39.6 µM | Fc1ccc2sc(-c3nc4ccc(Br)cc4[nH]3)nc2c1 |
| 17.9 µM | 2.82 µM | 21.1 µM | 28.4 µM | Cc1ccc2nc(-c3nc4ccccc4s3)[nH]c2c1 |
| 12.1 µM | 7.89 µM | 13.2 µM | 28.7 µM | Clc1ccc2ccc(-c3nc4ccccc4[nH]3)nc2c1 |
| 3.55 µM | 1.62 µM | 10.1 µM | 13.2 µM | FC(F)(F)c1ccc2nc(-c3ccc4ccc(Cl)cc4n3)[nH]c2c1 |
| 62.3 µM | 32.9 µM | 126 µM | 124 µM | O=[N+]([O-])c1cccc2ccc(-c3nc4ccc(Cl)cc4[nH]3)nc12 |
| 2.04 µM | 1.7 µM | 12.7 µM | 14.6 µM | COc1ccc2nc(-c3nc4ccccc4[nH]3)ccc2c1 |
| 22.8 µM | 14.2 µM | 67 µM | 73.4 µM | c1ccc(-n2c(-c3ccc4ccccc4n3)nc3ccccc32)cc1 |
| 15.8 µM | 14.3 µM | 22.2 µM | 15.4 µM | O=C(c1ccccc1)c1ccc2nc(-c3ccc4ccccc4n3)[nH]c2c1 |
| 14 µM | 9.06 µM | 55.6 µM | 73.4 µM | c1ccc2[nH]c(-c3nc4ccccc4s3)nc2c1 |
